Converted amounts (≈) assume the structure as drawn. “And” between values parts separate entries of the source, which are not always exact repeats. Identical values can stand only once.
Tests used:
[1] = Solubility of Salvinorin A in solubilizer oils (HPLC)
[2] = Pharmacokinetics of subcutaneous Salvinorin A in rats, Day 1 and Day 8 (in 1-methyl-2-pyrrolidine, polyethylene glycol 400 1:9 v/v); format: in vivo, Sprague-Dawley rats; conditions: for time to peak plasma concentration (Tmax): summary of two separate studies
Experimental: In another experiment Salvinorin A was formulated at three different dose concentrations (1 mg/mL, 5 mg/mL, and 10 mg/mL Salvinorin A in 1-methyl-2-pyrrolidine, polyethylene glycol 400 at a 1:9 v/v ratio) and administered via injection (subcutaneous) to three groups of Sprague-Dawley rats (each group including female and male rats). The formulation containing 10 mg/mL Salvinorin A was administered as two injections at separate dosage sites (total dose of 100 mg/kg). The same groups of rats were administered a second dose of the injectable composition 7 days after the first dosing.

[3] = Solubility of Salvinorin A API and Salvinorin A loaded buccal films in 10 mM PBS pH 7; format: physicochemical
Experimental: After 3 hours samples were filtered through 0.45/0.22 micron filter and tested for content by HPLC analysis.

[4] = Salvinorin A solubility in polar aprotic solvents; format: physicochemical
Experimental: In Table 9 below the solubility of Salvinorin A in polar aprotic solvents was evaluated by increasing the amount of Salvinorin A in the candidate solvents.

[5] = Solubilization of Salvinorin A mixed with solubilizers in water (supersaturated mixtures, HPLC)
[6] = Pharmacokinetics of subcutaneous Salvinorin A in rats, first experiment (in 1-methyl-2-pyrrolidine, polyethylene glycol 400 1:9 v/v); format: in vivo, male Sprague-Dawley rats
Experimental: A series of experiments were conducted in order to evaluate the pharmacokinetics of injectable Salvinorin A compositions in rats. In the first experiment Salvinorin A was formulated at two different dose concentrations (5 mg/mL and 20 mg/mL Salvinorin A in 1-methyl-2-pyrrolidine, polyethylene glycol 400 at a 1:9 v/v ratio) and administered via injection (subcutaneous) to two groups of male Sprague-Dawley rats.

[7] = administered orally, even at higher doses; cited from earlier work
[8] = Day 1, Group 10, 5 mg/kg subcutaneous, Mean of M and F
[9] = Day 1, Group 10, 5 mg/kg subcutaneous, Sex F
[10] = Day 1, Group 10, 5 mg/kg subcutaneous, Sex M
[11] = Day 1, Group 11, 25 mg/kg subcutaneous, Mean of M and F
[12] = Day 1, Group 11, 25 mg/kg subcutaneous, Sex F
[13] = Day 1, Group 11, 25 mg/kg subcutaneous, Sex M
[14] = Day 1, Group 12, 100 mg/kg subcutaneous (two injections), Mean of M and F
[15] = Day 1, Group 12, 100 mg/kg subcutaneous (two injections), Sex F
[16] = Day 1, Group 12, 100 mg/kg subcutaneous (two injections), Sex M
[17] = Day 8 (second dose), Group 10, 5 mg/kg subcutaneous, Mean of M and F
[18] = Day 8 (second dose), Group 10, 5 mg/kg subcutaneous, Sex F
[19] = Day 8 (second dose), Group 10, 5 mg/kg subcutaneous, Sex M
[20] = Day 8 (second dose), Group 11, 25 mg/kg subcutaneous, Mean of M and F
[21] = Day 8 (second dose), Group 11, 25 mg/kg subcutaneous, Sex F
[22] = Day 8 (second dose), Group 11, 25 mg/kg subcutaneous, Sex M
[23] = Day 8 (second dose), Group 12, 100 mg/kg subcutaneous (two injections), Mean of M and F
[24] = Day 8 (second dose), Group 12, 100 mg/kg subcutaneous (two injections), Sex F
[25] = Day 8 (second dose), Group 12, 100 mg/kg subcutaneous (two injections), Sex M
[26] = Group 1, 25 mg/kg subcutaneous, Mean
[27] = Group 1, 25 mg/kg subcutaneous, individual rats 0, 1, 2, 25 mg/kg
[28] = Group 2, 100 mg/kg subcutaneous, Mean
[29] = Group 2, 100 mg/kg subcutaneous, individual rats 3, 4, 5, 100 mg/kg

## COC(=O)[C@@H]1C[C@H](OC(C)=O)C(=O)[C@H]2[C@@]1(C)CC[C@H]1C(=O)O[C@H](c3ccoc3)C[C@]21C [Salvinorin A]
[1]; Eucaliptol 5 g, Salvinorin A 12.00 mg
  Solubility (mg/ml) HPLC: 0.108 mg/mL (≈ 250 µM)
[1]; L Menthone 5 g, Salvinorin A 10.00 mg
  Solubility (mg/ml) HPLC: 0.101 mg/mL (≈ 234 µM)
[1]; Oleyl Alcohol 5 g, Salvinorin A 11.00 mg
  Solubility (mg/ml) HPLC: 0.065 mg/mL (≈ 150 µM)
[1]; Peppermint oil 5 g, Salvinorin A 9.90 mg
  Solubility (mg/ml) HPLC: 0.384 mg/mL (≈ 888 µM)
[1]; S Limonene 5 g, Salvinorin A 10.00 mg
  Solubility (mg/ml) HPLC: 0.052 mg/mL (≈ 120 µM)
[1]; Soybean oil 5 g, Salvinorin A 11.00 mg
  Solubility (mg/ml) HPLC: 0.032 mg/mL (≈ 74 µM)
[2]; [8]
  AUClast: 191 ng·h/mL
  Cmax: 67.1 ng/mL
  Tmax: 3 h
[2]; [9]
  AUClast: 233 ng·h/mL
  Cmax: 75.8 ng/mL
  Tlast: 4 h
  Tmax: 4 h
[2]; [10]
  AUClast: 148 ng·h/mL
  Cmax: 58.4 ng/mL
  Tlast: 4 h
  Tmax: 2 h
[2]; [11]
  AUClast: 375 ng·h/mL
  Cmax: 192 ng/mL
  Tmax: 0.75 h
[2]; [12]
  AUClast: 389 ng·h/mL
  Cmax: 250 ng/mL
  Tlast: 4 h
  Tmax: 0.5 h
[2]; [13]
  AUClast: 361 ng·h/mL
  Cmax: 135 ng/mL
  Tlast: 4 h
  Tmax: 1 h
[2]; [14]
  AUC0-00: 1580 ng·h/mL
  AUClast: 1540 ng·h/mL
  Cmax: 370 ng/mL
  Tmax: 0.075 h
  T½: 4.79 h
[2]; [15]
  AUC0-00: 1920 ng·h/mL
  AUClast: 1870 ng·h/mL
  Cmax: 419 ng/mL
  Tlast: 24 h
  Tmax: 1 h
  T½: 4.80 h
[2]; [16]
  AUC0-00: 1240 ng·h/mL
  AUClast: 1210 ng·h/mL
  Cmax: 321 ng/mL
  Tlast: 24 h
  Tmax: 0.5 h
  T½: 4.78 h
[2]; [17]
  AUClast: 200 ng·h/mL
  Cmax: 74.5 ng/mL
  Tmax: 2 h
[2]; [18]
  AUClast: 211 ng·h/mL
  Cmax: 78.3 ng/mL
  Tlast: 4 h
  Tmax: 2 h
[2]; [19]
  AUClast: 188 ng·h/mL
  Cmax: 70.6 ng/mL
  Tlast: 4 h
  Tmax: 2 h
[2]; [20]
  (h): 4.54 h
  AUC0-00: 735 ng·h/mL
  AUClast: 723 ng·h/mL
  Cmax: 174 ng/mL
  Tmax: 0.75 h
[2]; [21]
  (h): 4.16 h
  AUC0-00: 958 ng·h/mL
  AUClast: 946 ng·h/mL
  Cmax: 162 ng/mL
  Tlast: 24 h
  Tmax: 0.5 h
[2]; [22]
  (h): 4.92 h
  AUC0-00: 512 ng·h/mL
  AUClast: 500 ng·h/mL
  Cmax: 185 ng/mL
  Tlast: 24 h
  Tmax: 1 h
[2]; [23]
  (h): 5.00 h
  AUC0-00: 1420 ng·h/mL
  AUClast: 1380 ng·h/mL
  Cmax: 341 ng/mL
  Tmax: 0.05 h
[2]; [24]
  (h): 4.80 h
  AUC0-00: 1520 ng·h/mL
  AUClast: 1470 ng·h/mL
  Cmax: 315 ng/mL
  Tlast: 24 h
  Tmax: 0.5 h
[2]; [25]
  (h): 5.20 h
  AUC0-00: 1320 ng·h/mL
  AUClast: 1280 ng·h/mL
  Cmax: 368 ng/mL
  Tlast: 24 h
  Tmax: 0.5 h
[2]; subcutaneous dosing in the rat at 5 mg/kg
  time to peak plasma concentration (Tmax): 2 to 4 h
[2]; subcutaneous dosing in the rat at 25 and 100 mg/kg
  time to peak plasma concentration (Tmax): 0.5 h
[3]; 4 mg equivalent of API powder or film in 10 mL 10 mM PBS, pH 7, 3 hours, filtered, HPLC
  Solubility: 1.8 µg/mL
[3]; 10 mM PBS, pH 7.0
  Solubility (in words): very low solubility
[4]; DMA, 100 mg/ml
  Solubility (Y= soluble, N= not soluble completely): Y (Y= soluble)
[4]; DMA, 200 mg/ml
  Solubility (Y= soluble, N= not soluble completely): N (N= not soluble completely)
[4]; DMSO, 100 mg/ml
  Solubility (Y= soluble, N= not soluble completely): Y (Y= soluble)
[4]; DMSO, 200 mg/ml
  Solubility (Y= soluble, N= not soluble completely): N (N= not soluble completely)
[4]; NMP, 20 mg/ml
  Solubility (Y= soluble, N= not soluble completely): Y (Y= soluble)
[4]; NMP, 100 mg/ml
  Solubility (Y= soluble, N= not soluble completely): Y (Y= soluble)
[4]; NMP, 200 mg/ml
  Solubility (Y= soluble, N= not soluble completely): Y (Y= soluble)
[5]; Benzalkonium chloride (BKC) 50 mg, Salvinorin A 21 mg, water 10 ml
  Solubility (mg/ml) HPLC: 0.008 mg/mL (≈ 18.5 µM)
[5]; Poloxamer 407 (Lutrol micro 127 MP) 150 mg, Salvinorin A 21 mg, water 10 ml
  Solubility (mg/ml) HPLC: 0.008 mg/mL (≈ 18.5 µM)
[5]; SPAN 60 103.00 mg, Salvinorin A 12.00 mg, water 5 ml
  Solubility (mg/ml) HPLC: 0.013 mg/mL (≈ 30.1 µM)
[5]; Sodium Deoxycholate 100 mg, Salvinorin A 22 mg, water 10 ml
  Solubility (mg/ml) HPLC: 0.078 mg/mL (≈ 180 µM)
[5]; Sodium dodecyl sulfate (SDS; SLS) 50 mg, Salvinorin A 21 mg, water 10 ml
  Solubility (mg/ml) HPLC: 0.013 mg/mL (≈ 30.1 µM)
[5]; TPGS (soluble vitamin E) 100 mg, Salvinorin A 23 mg, water 10 ml
  Solubility (mg/ml) HPLC: 0.011 mg/mL (≈ 25.4 µM)
[6]; [26]
  AUC0-00: 457.0 ng·h/mL
  AUClast: 427.3 ng·h/mL
  Cmax: 215.3 ng/mL
  Tmax: 0.50 h
  T½: 1.5 h
[6]; Group 1, 25 mg/kg subcutaneous, individual rats 0, 1, 2
  Tmax: 0.50 h
[6]; [27]
  AUC0-00: 389 ng·h/mL and 422 ng·h/mL and 560 ng·h/mL
  AUClast: 362 ng·h/mL and 405 ng·h/mL and 515 ng·h/mL
  Cmax: 209 ng/mL and 213 ng/mL and 224 ng/mL
  T½: 1.00 h and 1.58 h and 1.96 h
[6]; [28]
  AUC0-00: 419.3 ng·h/mL
  AUClast: 395.0 ng·h/mL
  Cmax: 183.3 ng/mL
  Tmax: 0.7 h
  T½: 1.5 h
[6]; [29]
  AUC0-00: 365 ng·h/mL and 498 ng·h/mL and 395 ng·h/mL
  AUClast: 348 ng·h/mL and 461 ng·h/mL and 376 ng·h/mL
  Cmax: 187 ng/mL and 208 ng/mL and 155 ng/mL
  Tmax: 1.00 h and 0.50 h
  T½: 0.87 h and 1.91 h and 1.73 h
[7]
  psychoactive effects: fails to exhibit any psychoactive effects

From patent US20230270714A1, “SALVINORIN COMPOSITIONS” (priority 2021, published 2023)
